In brackets after ≈: the same amount, converted by molar mass.
Columns and labels:
K562 = experiment: Cytotoxicity against human K562 cells after 24 hrs by MTT assay; type: functional, cell-based
U-937 = experiment: Cytotoxicity against human U937 cells after 24 hrs by MTT assay; type: functional, cell-based; conditions: U-937, 24 h
[1] = tested on: Trypanosoma brucei brucei; experiment: Antitrypanosomal activity against Trypanosoma brucei brucei S427 after 48 hrs by alamar blue assay; type: functional; conditions: S427, 48 h
Jurkat = experiment: Cytotoxicity against human Jurkat cells after 24 hrs by MTT assay; type: functional, cell-based
[2] = Inhibition of NF-kappaB activity in TNFalpha-stimulated human K562 cells after 24 hrs by luciferase reporter gene assay; type: cell-based; conditions: K562, 24 h
[3] = Homo sapiens, K562, 24 h, read-out: IC50

SMILES	MIC [1] [µM]	IC50 [2] [µM]	IC50 (K562; k562)	IC50 (U-937) [µM]	IC50 (Jurkat) [µM]	IC50 (K562; [3]) [µM]
Cc1cc(=O)c2c(C)cc(O)cc2o1	> 100	–	–	–	–	–
C[C@H]1CCC/C=C\C(=O)c2c(O)cc(O)cc2CC(=O)O1	> 100	–	–	–	–	–
C[S+]([O-])c1cccc2ccc(=O)oc12 (configuration not stated) [SULFIMARINE]	> 100	–	–	–	–	–
C[C@H]1CCC[C@H]2O[C@@H]2C(=O)c2c(O)cc(O)cc2CC(=O)O1	> 100	–	–	–	–	–
C/C=C/C=C/C(=O)C1=C(O)[C@@]2(C)[C@H]3C(C(=O)/C=C/C=C/C)=C(O)[C@@]4(C)[C@@H]1[C@]1(C)O[C@@]4(O)[C@@]3(C)O[C@@]12O [TRICHODIMEROL]	6.29 (≈ 3.12 µg/mL)	47.8	–	16.5	28.5	74.4
CO[C@H]1CCC[C@H](C)OC(=O)Cc2cc(O)cc(O)c2C(=O)C1 [11ALPHA-METHOXYCURVULARIN]	9.68 (≈ 3.12 µg/mL)	10.1	–	4.6	2.3	41.1
C=C1CC[C@@H]2C(C)(C)CCC[C@@]2(C)[C@@H]1CC/C(C)=C/Cn1c[n+](C)c2ncnc(N)c21 [AGELASINE D]	14.8	–	–	–	–	–
CO[C@@H]1CCC[C@H](C)OC(=O)Cc2cc(O)cc(O)c2C(=O)C1 [11BETA-METHOXYCURVULARIN]	4.96 (≈ 1.6 µg/mL)	4.7	–	1.8	3.9	12.4
Cc1ccc(C(=O)Nc2ccc(S(=O)(=O)O)c3cc(S(=O)(=O)O)cc(S(=O)(=O)O)c23)cc1NC(=O)c1cccc(NC(=O)Nc2cccc(C(=O)Nc3cc(C(=O)Nc4ccc(S(=O)(=O)O)c5cc(S(=O)(=O)O)cc(S(=O)(=O)O)c45)ccc3C)c2)c1 [SURAMIN]	0.06 (≈ 0.0778 µg/mL)	–	–	–	–	–

Second part, led by results:

MIC [1] [µM]	IC50 [2] [µM]	SMILES	IC50 (K562; k562)	IC50 (U-937) [µM]	IC50 (Jurkat) [µM]	IC50 (K562; [3]) [µM]
41.7 (≈ 12.5 µg/mL)	> 100	COc1cc(CO)cc2c1C(=O)c1c(O)cc(O)cc1C2=O [CARVIOLIN]	Not Active	> 100	> 100	–
> 100	46	COc1cc(C)cc2c1C(=O)c1c(O)cc(O)c(Cl)c1[C@H]2[C@H]1c2cc(C)cc(OC)c2C(=O)c2c(O)cc(O)c(Cl)c21 [NEOBULGARONE E]	–	47.6	82.4	> 100
> 100	> 100	COc1cc(C)cc2c1C(=O)c1c(O)cc(O)c(Cl)c1[C@H]2[C@H]1c2cc(CO)cc(OC)c2C(=O)c2c(O)cc(O)c(Cl)c21 [NEOBULGARONE G]	Not Active	> 100	> 100	–
78.6 (≈ 25.1 µg/mL)	1.6	COc1cc(C)cc2c1C(=O)c1c(O)cc(O)c(Cl)c1C2=O	–	7.6	13.3	24.8
18.7 (≈ 6.26 µg/mL)	16	COc1cc(CO)cc2c1C(=O)c1c(O)cc(O)c(Cl)c1C2=O	–	22	28.4	40.1
11 (≈ 3.12 µg/mL)	> 100	COc1cc(C)cc2c1C(=O)c1c(O)cc(O)cc1C2=O [1-O-METHYLEMODIN]	Not Active	88.6	> 100	–
9.75 (≈ 3.13 µg/mL)	–	COc1cc(C)cc2c1C(=O)c1c(O)cc(O)c(Cl)c1C2O (configuration not stated)	–	–	–	–
> 100	5.6	C[C@H]1CCC/C=C/C(=O)c2c(O)cc(O)cc2CC(=O)O1 [DEHYDROCURVULARIN]	–	2.5	5.5	37
